Source: patent publication US8802673B2, “Heterocyclic amine derivatives” (Hoffmann-La Roche Inc, priority 2011, dated 2014)

What was measured:
mouse TAAR1 = mouse TAAR1 (Mus musculus (Mouse), UniProt Q923Y8); assay: Radioligand binding assay on mouse TAAR1; settings: for Ki: mouse TAAR1 (first value of the cell), HEK-293 membranes, read-out: Ki (μM) mouse/rat
Procedure, shortened: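 Membranes from HEK293 cells stably expressing mouse TAAR1, Kd of radioligand determined per batch by saturation. Compounds tested 10 pM to 10 μM in duplicate, incubated 1 h at 4 °C, then filtration over PEI-soaked GF/C filters and scintillation counting.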

rat TAAR1 = rat TAAR1 (Rattus norvegicus (Rat), UniProt Q923Y9); assay: Radioligand binding assay on rat TAAR1; settings: for Ki: rat TAAR1 (second value of the cell), HEK-293 membranes, read-out: Ki (μM) mouse/rat
Chain of rat TAAR1 (Q923Y9 whole entry): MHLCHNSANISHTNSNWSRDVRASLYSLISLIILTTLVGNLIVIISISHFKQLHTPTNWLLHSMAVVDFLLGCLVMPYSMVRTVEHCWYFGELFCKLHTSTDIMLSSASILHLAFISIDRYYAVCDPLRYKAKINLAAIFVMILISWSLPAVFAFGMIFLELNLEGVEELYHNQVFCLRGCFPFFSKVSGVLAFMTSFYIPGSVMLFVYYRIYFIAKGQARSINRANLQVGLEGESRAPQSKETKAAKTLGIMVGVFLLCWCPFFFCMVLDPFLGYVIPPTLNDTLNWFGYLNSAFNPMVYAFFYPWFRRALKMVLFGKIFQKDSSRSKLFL
Procedure, shortened: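 Membranes from HEK293 cells stably expressing rat TAAR1 were used, with radioligand Kd determined by saturation for each batch. Compounds (10 pM to 10 μM, in duplicate) were incubated for 1 h at 4 °C. Bound radioactivity was collected by filtration onto PEI-soaked GF/C filters and counted by scintillation.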

Chain of mouse TAAR1 (Q923Y8 whole entry): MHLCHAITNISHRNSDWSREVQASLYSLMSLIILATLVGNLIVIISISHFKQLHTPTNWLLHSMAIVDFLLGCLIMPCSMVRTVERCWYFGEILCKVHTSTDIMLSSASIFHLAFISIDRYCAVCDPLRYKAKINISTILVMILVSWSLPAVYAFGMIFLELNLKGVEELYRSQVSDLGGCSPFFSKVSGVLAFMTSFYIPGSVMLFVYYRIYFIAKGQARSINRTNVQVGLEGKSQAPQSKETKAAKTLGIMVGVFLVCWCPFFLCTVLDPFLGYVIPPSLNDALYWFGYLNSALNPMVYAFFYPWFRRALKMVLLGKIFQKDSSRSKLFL

Ki (mouse TAAR1) [µM]	Ki (rat TAAR1) [µM]	Kd (mouse TAAR1; mouse TAAR1 membranes, saturation curve, usual value, read-out: dissociation constant (Kd) of the radioligand) [nM]	Kd (rat TAAR1; rat TAAR1 membranes, saturation curve, usual value, read-out: dissociation constant (Kd) of the radioligand) [nM]	Compound
0.0012	0.0067			Clc1ccc2nc(Nc3ccc([C@H]4CNCCO4)cc3)ccc2c1 [Example 47, (S)-6-Chloro-N-(4-(morpholin-2-yl)phenyl)quinolin-2-amine]
0.0027	0.101			Cc1cnc(Nc2ccc([C@H]3CNCCO3)cc2)cc1Br [Example 64, (S)-4-Bromo-5-methyl-N-(4-(morpholin-2-yl)phenyl)pyridin-2-amine]
0.002	0.0083			Clc1ccc2nc(Nc3ccc([C@H]4CNCCO4)cc3)sc2c1 [Example 26, (6-Chloro-benzothiazol-2-yl)-((S)-4-morpholin-2-yl-phenyl)-amine]
0.109	0.0605			c1cc(C2CC2)nc(Nc2ccc([C@@H]3CNCCO3)cc2)n1 [Example 189, (4-Cyclopropyl-pyrimidin-2-yl)-((R)-4-morpholin-2-yl-phenyl)-amine]
0.0032	0.0065			Clc1cnc(Nc2ccc([C@@H]3CNCCO3)c(Cl)c2)nc1 [Example 202, ((R)-3-Chloro-4-morpholin-2-yl-phenyl)-(5-chloro-pyrimidin-2-yl)-amine]
0.0054	0.313			Cc1cnc(Nc2ccc([C@H]3CNCCO3)cc2)nc1 [Example 18, (5-Methyl-pyrimidin-2-yl)-((S)-4-morpholin-2-yl-phenyl)-amine]
0.0131	0.629			c1cc([C@H]2CNCCO2)ccc1Nc1ccc2c(c1)OCO2 [Example 65, (S)—N-(4-(Morpholin-2-yl)phenyl)benzo[d][1,3]dioxol-5-amine]
0.0028	0.0379			Fc1cc([C@H]2CNCCO2)ccc1Nc1ncc(Cl)cn1 [Example 131, (5-Chloro-pyrimidin-2-yl)-((S)-2-fluoro-4-morpholin-2-yl-phenyl)-amine]
0.0057	0.0223			FC(F)(F)c1cnc(Nc2ccc([C@@H]3CNCCO3)cc2)nc1 [Example 95, ((R)-4-Morpholin-2-yl-phenyl)-(5-trifluoromethyl-pyrimidin-2-yl)-amine]
0.0074	0.292			Clc1ccc(Nc2ccc([C@@H]3CNCCO3)cc2)cn1 [Example 67, (R)-6-Chloro-N-(4-(morpholin-2-yl)phenyl)pyridin-3-amine]
0.0084	0.398			N#Cc1ccnc(Nc2ccc([C@@H]3CNCCO3)cc2)n1 [Example 181, 2-((R)-4-Morpholin-2-yl-phenylamino)-pyrimidine-4-carbonitrile]
0.0231	0.056			Clc1cc(Nc2ccc([C@@H]3CNCCO3)cc2)ncn1 [Example 199, (R)-6-Chloro-N-(4-(morpholin-2-yl)phenyl)pyrimidin-4-amine]
0.0704	0.584			Clc1cnc(Nc2ccc([C@H]3CNCCO3)cc2)c(Cl)c1 [Example 58, (S)-3,5-Dichloro-N-(4-(morpholin-2-yl)phenyl)pyridin-2-amine]
0.0043	0.0298			Cc1cc(C(F)(F)F)nc(Nc2ccc([C@@H]3CNCCO3)cc2)n1 [Example 178, (4-Methyl-6-trifluoromethyl-pyrimidin-2-yl)-((R)-4-morpholin-2-yl-phenyl)-amine]
0.0079	0.0847			CC(C)Oc1cnc(Nc2ccc([C@H]3CNCCO3)cc2)nc1 [Example 122, (5-Isopropoxy-pyrimidin-2-yl)-((S)-4-morpholin-2-yl-phenyl)-amine]
0.0036	0.0348			c1cc([C@H]2CNCCO2)ccc1Nc1ncc(OCC2CC2)cn1 [Example 124, (S)-5-(Cyclopropylmethoxy)-N-(4-(morpholin-2-yl)phenyl)pyrimidin-2-amine]
0.0035	0.0162			FC(F)(F)COc1ccnc(Nc2ccc([C@@H]3CNCCO3)cc2)n1 [Example 172, ((R)-4-Morpholin-2-yl-phenyl)-[4-(2,2,2-trifluoro-ethoxy)-pyrimidin-2-yl]-amine]
0.0045	0.0278			c1cc([C@@H]2CNCCO2)ccc1Nc1ncc(OCC2CC2)cn1 [Example 125, (R)-5-(Cyclopropylmethoxy)-N-(4-(morpholin-2-yl)phenyl)pyrimidin-2-amine]
0.0011	0.0544			Clc1ccc(Nc2ccc([C@H]3CNCCO3)cc2)nc1 [Example 38, (5-Chloro-pyridin-2-yl)-((S)-4-morpholin-2-yl-phenyl)-amine]
0.005	0.0608			Clc1ccc2ncnc(Nc3ccc([C@H]4CNCCO4)cc3)c2c1 [Example 50, (S)-6-Chloro-N-(4-(morpholin-2-yl)phenyl)quinazolin-4-amine]
0.0386	5.25			Cn1ccc(Nc2ccc(C3CNCCO3)cc2)n1 (racemic) [Example 140, (RS)-(1-Methyl-1H-pyrazol-3-yl)-(4-morpholin-2-yl-phenyl)-amine]
0.0051	0.0494			FC(F)(F)COc1cnc(Nc2ccc([C@H]3CNCCO3)cc2)nc1 [Example 136, ((S)-4-Morpholin-2-yl-phenyl)-[5-(2,2,2-trifluoro-ethoxy)-pyrimidin-2-yl]-amine]
0.007	0.84			FC(F)(F)c1ncc(Nc2ccc([C@H]3CNCCO3)cc2)cn1 [Example 153, ((S)-4-Morpholin-2-yl-phenyl)-(2-trifluoromethyl-pyrimidin-5-yl)-amine]
0.0051	0.0417			Clc1ccc(CNc2ccc([C@H]3CNCCO3)cc2)cc1Cl [Example 30, (3,4-Dichloro-benzyl)-((S)-4-morpholin-2-yl-phenyl)-amine]

The remaining lines, values behind:

Compound	Ki (mouse TAAR1) [µM]	Ki (rat TAAR1) [µM]	Kd (mouse TAAR1; mouse TAAR1 membranes, saturation curve, usual value, read-out: dissociation constant (Kd) of the radioligand) [nM]	Kd (rat TAAR1; rat TAAR1 membranes, saturation curve, usual value, read-out: dissociation constant (Kd) of the radioligand) [nM]
c1coc(-c2cnc(Nc3ccc([C@H]4CNCCO4)cc3)nc2)c1 [Example 147, (5-Furan-2-yl-pyrimidin-2-yl)-((S)-4-morpholin-2-yl-phenyl)-amine]	0.0009	0.0197		
FC(F)(F)COc1ccnc(Nc2ccc([C@@H]3CNCCO3)c(Cl)c2)n1 [Example 211, ((R)-3-Chloro-4-morpholin-2-yl-phenyl)-[4-(2,2,2-trifluoro-ethoxy)-pyrimidin-2-yl]-amine]	0.0042	0.0011		
COc1ccc(CNc2ccc([C@H]3CNCCO3)cc2)cc1 [Example 20, (4-Methoxy-benzyl)-((S)-4-morpholin-2-yl-phenyl)-amine]	0.0453	0.764		
Fc1cc(C2CNCCO2)ccc1Nc1ncc(Cl)cn1 (racemic) [Example 96, (RS)-5-Chloro-N-(2-fluoro-4-(morpholin-2-yl)phenyl)pyrimidin-2-amine]	0.0062	0.0216		
CCN(C[C@H]1COC(N)=N1)c1ccccc1 [^3[H]-(S)-4-[(ethyl-phenylamino)-methyl]-4,5-dihydro-oxazol-2-ylamine, reference compound]			~0.7	~2.3
FC(F)(F)COc1cnc(Nc2ccc([C@@H]3CNCCO3)c(Cl)c2)nc1 [Example 203, ((R)-3-Chloro-4-morpholin-2-yl-phenyl)-[5-(2,2,2-trifluoro-ethoxy)-pyrimidin-2-yl]-amine]	0.0022	0.0017		
FC(F)(F)c1ccc(CNc2ccc([C@H]3CNCCO3)cc2)cn1 [Example 33, (S)-4-(Morpholin-2-yl)-N-((6-(trifluoromethyl)pyridin-3-yl)methyl)aniline]	0.047	0.544		
Cc1cc(C2CNCCO2)cnc1Nc1ccc(Br)cn1 (racemic) [Example 120, (RS)—N-(5-Bromopyridin-2-yl)-3-methyl-5-(morpholin-2-yl)pyridin-2-amine]	0.0058	0.0364		
FC(F)(F)c1cnc(Nc2ccc([C@@H]3CNCCO3)c(Cl)c2)nc1 [Example 204, ((R)-3-Chloro-4-morpholin-2-yl-phenyl)-(5-trifluoromethyl-pyrimidin-2-yl)-amine]	0.0038	0.0021		
c1nc(Nc2ccc(C3CNCCO3)cn2)ncc1C1CC1 (racemic) [Example 92, (RS)-5-Cyclopropyl-N-(5-(morpholin-2-yl)pyridin-2-yl)pyrimidin-2-amine]	0.0229	0.275		
c1ccc2nc(Nc3ccc([C@H]4CNCCO4)cc3)ccc2c1 [Example 46, ((S)-4-Morpholin-2-yl-phenyl)-quinolin-2-yl-amine]	0.0008	0.0643		
CCOc1cnc(Nc2ccc([C@@H]3CNCCO3)cc2F)nc1 [Example 132, (5-Ethoxy-pyrimidin-2-yl)-((R)-2-fluoro-4-morpholin-2-yl-phenyl)-amine]	0.0047	0.0182		
CCCc1cnc(Nc2ccc([C@@H]3CNCCO3)cc2F)nc1 [Example 128, ((R)-2-Fluoro-4-morpholin-2-yl-phenyl)-(5-propyl-pyrimidin-2-yl)-amine]	0.0049	0.0039		
CCCc1cnc(Nc2ccc([C@H]3CNCCO3)cc2F)nc1 [Example 129, ((S)-2-Fluoro-4-morpholin-2-yl-phenyl)-(5-propyl-pyrimidin-2-yl)-amine]	0.0043	0.0068		
CCOc1cnc(Nc2ccc(C3CNCCO3)cc2F)nc1 (racemic) [Example 100, (RS)-(5-Ethoxy-pyrimidin-2-yl)-(2-fluoro-4-morpholin-2-yl-phenyl)-amine]	0.0053	0.0164		
CCc1cnc(Nc2ccc([C@@H]3CNCCO3)cc2)nc1 [Example 68, (R)-5-Ethyl-N-(4-(morpholin-2-yl)phenyl)pyrimidin-2-amine]	0.0094	0.0751		
CCCc1cnc(Nc2ccc([C@H]3CNCCO3)cc2)nc1 [Example 21, ((S)-4-Morpholin-2-yl-phenyl)-(5-propyl-pyrimidin-2-yl)-amine]	0.002	0.0245		
